{
  "source": "patent US20110269837A1",
  "about": "“PHOSPHORUS BINDER COMPOSITION FOR TREATMENT OF HYPERPHOSPHATEMIA” (BIOLINK LIFE SCIENCES, INC., priority 2010, published 2011)",
  "key": {"[1]": {"conditions": "for Pi binding (FIG. 1): 24 hours; for Observed in vitro Pi Binding, %: inventor's experiments, mean of triplicate determinations", "method": "The pH of each solution was adjusted to the desired value by the addition of concentrated hydrochloric acid or sodium hydroxide, as appropriate.\nAn HPLC method with conductivity detection was developed and validated for use in the determination of succinate, acetate and phosphate. The separation was performed on a Dionex AS11 […] HPLC column integrated with an Agilent Series 1100 HPLC system, and detection of the anionic species was enabled using a Dionex ED50 Electrochemical Detector, operating in Conductivity Mode. Limits of Detection and Quantitation were enhanced through the use of a Dionex Anion Self-Regenerating Suppressor. After assay-specific development and verification of assay performance were completed, the analysis of phosphate and succinate or acetate was performed by sampling the test solution and diluting it, if necessary, to a concentration within the linear range of the Assay. The sample was then injected onto the HPLC column and eluted with a sodium hydroxide gradient. Data were acquired using Agilent ChemStation® software.\nExperimental Methods: Experiments were completed in triplicate in which 2.77 g of Na2HPO4.7 H2O (equivalent to 320 mg of elemental phosphorus) was dissolved in 570 mL of deionized water. The test or control binder was dissolved in deionized water to a volume of 30 mL. The binder solution was added to the phosphorus solution to give a final volume of 600 mL. For each binder study, the phosphorus solutions were titrated by addition of dilute HCl or dilute NaOH to five different initial pH levels: 4, 5, 6, 7, and 8. (These solution pH's span the pH range of the gastrointestinal tract.) Then the beakers containing the solutions were covered with plastic wrap and placed on a stir plate that agitated the solution at ˜20 cycles per minute overnight. This stirring rate has been selected because in vitro antacid activity at such low stirring rates has been reported to correlate well with in vivo antacid activity in the stomach. Samples for ion chromatographic assay of solution phosphate (Pi) were taken at 24 hours post-mixing (the maximum time available for phosphorus binding that has been reported in related in vivo studies). The decrease in phosphorus concentration from the original concentration in the phosphorus solution to that of the filtrate represents the bound phosphorus."}, "[2]": {"conditions": "Sheikh et al. 1989, cited from earlier work"}, "[3]": {"conditions": "healthy human subjects, anticipated", "excerpt": "Net calcium absorption will be measured by a validated method, such as the one described in detail by Bo-Linn, G. W. et al., Journal of Clinical Investigation, 73: 640-647 (1984). The procedure that will be followed is described below.\nOn each day, subjects will be prepared by a mannitol-electrolyte gastrointestinal lavage, in order to cleanse the gastrointestinal tract. […] Then each subject will eat a test meal of 80 g ground sirloin steak, 100 g French fried potatoes, 30 g Swiss cheese and 250 mL water containing 10 g of polyethylene glycol (PEG3500) as a non-absorbable marker. After the meal, each subject will consume 25 mEq of calcium, in the same form as will have been consumed prior to the meal, or additional placebo, with 100 mL of water. Duplicate meals will be prepared (one for consumption and one to be analyzed for calcium and phosphorus). The duplicate meals will be analyzed for calcium and phosphorus and are expected to contain about 350 mg of phosphorus and about 215 mg of calcium. […]\nTen hours after a meal, a second lavage will be begun, using the procedure described above. […] All urine voided during the 10-hour period will be collected and analyzed for phosphorus and calcium. Rectal effluent will be collected, pooled with any stool passed during the 10-hour period and analyzed for phosphorus and calcium. Absorption will be calculated according to the following equation: […]"}},
  "note": "Counter-ions that a name gives are not always drawn. Like-named read-outs stand apart in the source and are kept apart here.",
  "data": [
    {"compound": "CC(=O)[O-].CC(=O)[O-].[Ca+2]", "note": "[Calcium Acetate, calcium acetate]", "values": [
      {"measurement": "Pi binding (FIG. 1)", "setting": "[1]; pH 4", "result": 100, "unit": "%"},
      {"measurement": "Observed in vitro Pi Binding, %", "setting": "[1]; pH 4.0", "result": 58.6, "unit": "%"},
      {"measurement": "Pi binding (FIG. 1)", "setting": "[1]; pH 5", "result": 92, "unit": "%"},
      {"measurement": "Pi binding (FIG. 1)", "setting": "[1]; pH 6", "result": 100, "unit": "%"},
      {"measurement": "Observed in vitro Pi Binding, %", "setting": "[1]; pH 6.0", "result": 93.8, "unit": "%"},
      {"measurement": "Pi binding (FIG. 1)", "setting": "[1]; pH 7", "result": 100, "unit": "%"},
      {"measurement": "Pi binding (FIG. 1)", "setting": "[1]; pH 8", "result": 100, "unit": "%"}
    ]},
    {"compound": "O=C([O-])[O-].[Ca+2]", "note": "[Calcium Carbonate, calcium carbonate]", "values": [
      {"measurement": "Observed in vitro Pi Binding, %", "setting": "[2]; pH 6.0", "result": 90, "unit": "%"}
    ]},
    {"compound": "O=C([O-])CC(O)(CC(=O)[O-])C(=O)[O-].O=C([O-])CC(O)(CC(=O)[O-])C(=O)[O-].[Ca+2].[Ca+2].[Ca+2]", "note": "[Calcium Citrate, calcium citrate]", "values": [
      {"measurement": "Observed in vitro Pi Binding, %", "setting": "[2]; pH 6.0", "result": 10, "unit": "%"},
      {"measurement": "Observed in vitro Pi Binding, %", "setting": "[2]; pH 6.5", "result": "20% at pH 6.5 (NOTE 2)"}
    ]},
    {"compound": "CC(O)C(=O)[O-].CC(O)C(=O)[O-].[Ca+2]", "note": "(centres unmarked) [Calcium Lactate, calcium lactate]", "values": [
      {"measurement": "Observed in vitro Pi Binding, %", "setting": "[2]; pH 6.0", "result": 90, "unit": "%"}
    ]},
    {"compound": "O=C(O)CCC(=O)O", "note": "[Calcium Succinate, butanedioic acid calcium salt]", "values": [
      {"measurement": "Pi binding compared with calcium acetate (FIG. 1)", "setting": "[1]; each pH value in the range from pH 4 to 8", "result": "matches or exceeds"},
      {"measurement": "Observed in vitro Pi Binding, %", "setting": "[1]; pH 4.0", "result": 59.4, "unit": "%"},
      {"measurement": "Observed in vitro Pi Binding, %", "setting": "[1]; pH 6.0", "result": 94.0, "unit": "%"},
      {"measurement": "dietary phosphorus absorbed from the GI tract", "setting": "[3]; ingested close in time to test meal", "result": "about 20%"},
      {"measurement": "change in the percentage of dietary calcium absorbed from the GI tract", "setting": "[3]; versus placebo day", "result": "less than 10%"}
    ]},
    {"compound": "calcium gluconate", "values": [
      {"measurement": "Observed in vitro Pi Binding, %", "setting": "[2]; pH 6.0", "result": 90, "unit": "%"}
    ]}
  ]
}
